According to patent US6203822A, “Gallium-containing compounds for the treatment of infections caused by intracellular pathogens and pathogens causing chronic pulmonary infection” (priority 1996, dated 2001):

Experiments:
[1] = cited from earlier work
[2] = system: M. tuberculosis in human macrophages; assay: Colony-forming unit assay to assess pathogen death; format: cell-based
Experimental: Example 4 and Example 5 detail exemplary methods used to determine whether the mycobacteria strains were killed by the addition of gallium nitrate. […] The bacteria were resuspended in 7H9 broth (BBL Microbiology Systems) or onto agar plates without gallium nitrate and incubated under conditions known to promote bacterial growth. In Example 4, the growth index for these cultures was assessed after 6 weeks to determine whether bacteria are inhibited or killed. […] In Example 5, M. tuberculosis-infected macrophages cell lysates were plated onto the surface of media able to support M. tuberculosis growth. Colony forming unit assays were counted to assess bacterial death or inhibition.
The growth index assay cannot always clearly distinguish between bacterial survival (without multiplication) and bacterial death. Therefore, colony forming unit assays were also used to assess the bactericidal activity of gallium-containing compounds in these experiments. Lysed monolayers were plated in Middlebrook 7H11 plates and colonies forming on the plates were counted after 14 days. […] In fact, this experiment provided the most graphic illustration of the influence of gallium nitrate on bacterial killing. That is, control-infected monolayers were lysed as a result of bacterial multiplication so that macrophages could no longer be visualized by microscopy. […] Importantly, the results in the colony-forming unit assay resemble the results obtained with the radiometric BACTEC assay.

[3] = system: M. tuberculosis strain H37Ra; assay: Radiometric BACTEC growth index assay of M. tuberculosis in broth culture, gallium nitrate; format: cell-based; conditions: BACTEC 12B
Experimental: FIG. 1 provides histograms that illustrate the inhibitory effect of gallium nitrate on M. tuberculosis in broth culture. […] FIG. 1B illustrates the results of experiments to inhibit M. tuberculosis strain H37Ra in broth culture over the range of 0 to 1040 μM concentrations gallium nitrate.
Example 1 details methods for performing the growth index assays of this invention to detect the growth of pathogenic organisms including M. tuberculosis in suspension culture. There are a number of suspension culture methods known in the art. As an example of a suspension assay, M. tuberculosis growth and gallium nitrate inhibition were quantitated using the radiometric BACTEC 460TB system (Becton Dickinson Diagnostic Instrument Systems, Sparks, Md.). […] While this and other examples are directed to the inhibition of Mycobacteria, those skilled in the art will recognize that the assays are readily adaptable to the quantitation of other intracellular bacterial pathogens capable of infecting phagocytic cells. Growth inhibition of parasites or fungi can also be readily assessed by introducing the gallium-containing compounds into cultures of the organisms under standard growth conditions.
Lyophilized M. tuberculosis Erdman strain (ATCC #35801) and H37Ra (ATCC #25177) were reconstituted in pyogen-free water (Sigma, St. Louis, Mo.), plated on 7H11 agar plates, incubated at 37° C. in 5% CO2, 95% air, and after 14 days of culture, harvested and frozen in 7H9 broth at -70° C. […] An aliquot of this suspension was diluted in formalin, counted and diluted to appropriate concentrations for use in experiments. […] The figures illustrate the recorded numbers from bottles on different days which correlate with growth index readings for the various concentrations of gallium nitrate at Day 6.
The BACTEC system (Becton Dickinson, Sparks, Md.) is an instrument to quantitate bacterial growth. […] During quantitation in the BACTEC instrument, the gas is aspirated from the vial and the ^14 CO2 radioactivity is determined on a scale from 0 to 999. […]

O=[N+]([O-])[O-].O=[N+]([O-])[O-].O=[N+]([O-])[O-].[Ga+3] [gallium nitrate]
dose that is non-toxic in vivo ([1]; in vivo): at least 200 mg/m^2 /day
plasma concentration that is non-toxic in vivo ([1]; in vivo): greater than 1.2 mg/L
tolerated dose ([1]; intravenous, at least 7 days (Todd et al.)): at least 200 mg/m^2 /day
safe dose in cancer patient therapy ([1]; literature, cancer patients): at least 200 mg/m^2 /day
tolerability ([1]; patients with cancer-related hypercalcemia): well tolerated, producing few clinically relevant adverse effects
colony-forming units from macrophage lysates, trend ([2]; between days 2 and 5 following gallium nitrate): continuous decrease in colony-forming units
killing of M. tuberculosis ([2]; colony forming unit assay, FIG. 5): M. tuberculosis were killed
colony-forming units relative to initial amount of bacteria in macrophages ([2]; day 5): only slightly below the initial amount of bacteria in macrophages
monolayer of treated infected macrophages ([2]; during assay, control-infected monolayers were lysed): maintained a very good monolayer
inhibition of growth [3]: markedly inhibits the growth of M. tuberculosis
concentration with marked inhibition of growth ([3]; radiometric): approximately 100 μM
concentration with statistically significant inhibition of growth ([3]; radiometric): 16.25 µM
